{
  "source": "patent US20170348330A1",
  "about": "“ANTIVIRAL COMPOUND AND ANALOGUES THEREOF FOR TREATMENT OR PREVENTION OF FLAVIVIRUS DENGUE/ZIKA INFECTIONS” (Canopus BioPharma Incorporated, priority 2016, published 2017)",
  "key": {"[1]": {"test_system": "Zika virus", "assay": "ZIKA anti-viral in-vitro testing in VERO cells (Naftol blue-black staining, absorbance at 450 nm)", "conditions": "for Absorbance at 450 nm: Zika MOI 0.1, VERO cells, 72 hours, threshold 0.382, replicate wells", "method": "ZIKA Anti-Viral In-Vitro Testing and Antiviral Assay Report:\nControls: Medium with DMSO at 1% start concentration; Zika virus for infection at 0.1 MOI; VERO cells on VP medium (serum-free).\nProcedure: Antivirals were diluted as information provided to stock concentrations of 10 mM in 100% DMSO.\n• 1—VERO cells in VP were inoculated in 200 μL/well at 5.0×10^4 cells/mL in 96-well plates. • 2—Incubated at 37° C. for 48 hours. • 3—With 80% confluence the test was performed as follows: culture medium was changed for 150 μL of fresh VP in columns 2 to 10. Antivirals diluted at 100 μM in VP medium were placed in the column 1 (300 μL). Serial dilutions from 1 to 10 were performed by passing 150 μL of medium (1:2). Plates were incubated at 37° C. for 2 hours. Zika virus diluted in VP medium to the final infection ration desired of MOI 0.1 in 100 μL of VP was added to wells. • 4—Plates were incubated for 72 hours and checked each 24 hours for cytotoxicity or cytopathic effect. • 5—Plates were washed and stained with Naftol blue-black. Absorbance was measured at 450 nm.\nDMSO cytotoxicity Antiviral cytotoxicity Primary Threshold for virus inhibition. Absorbance above 0.382"}, "[2]": {"test_system": "dengue", "conditions": "by inhibiting the dengue 2′-O-methyltransferase NS5 domain; cited from earlier work"}, "[3]": {"test_system": "dengue", "conditions": "mouse model; cited from earlier work"}, "[4]": {"test_system": "dengue", "conditions": "cited from earlier work"}, "[5]": {"assay": "Eplerenone PK and concentrations reported in humans", "type": "in vivo, human", "conditions": "for Cmax: human, plasma, po", "description": "Clinical data: Eplerenone PK and concentrations reported in humans:\nReferring now to FIG. 5 and FIG. 6, Eplerenone Cmax concentrations achieved in normal subjects is illustrated, as well as subjects with varying degrees of renal impairment after single and multiple doses of Eplerenone given orally.\nThe charts illustrate the feasibility of achieving anti-viral Cmax concentrations using Eplerenone in human and show Eplerenone plasma concentration vs. time curves.\nIn multiple dose studies, it is shown that Eplerenone steady state concentrations may be reached within 4 days. […] This preferred embodiment may be adjusted according to the specific conditions of the human subject."}, "[6]": {"conditions": "cited from earlier work; for mean Cmax concentrations: healthy subjects"}, "[7]": {"conditions": "cited from earlier work"}, "[8]": {"conditions": "laboratory animals; cited from earlier work"}},
  "note": "Values joined by “and” are separate entries in the source; they are usually repeats but may differ in a detail not shown here. Equal values may be shown once. Read-outs that look alike come from different tables or passages of the source.",
  "data": [
    {"smiles": "COCCOC(=O)C1=C(C)NC(C)=C(C(=O)OC(C)C)C1c1cccc([N+](=O)[O-])c1", "note": "(centres unmarked) [Nimodipine]", "values": [
      {"measurement": "Absorbance at 450 nm", "setting": "[1]; 0.19 μM", "value": "0.206 and 0.321 and 0.378 and 0.354"},
      {"measurement": "Absorbance at 450 nm", "setting": "[1]; 0.78 μM", "value": "0.142 and 0.293 and 0.459 and 0.396"},
      {"measurement": "Absorbance at 450 nm", "setting": "[1]; 1.56 μM", "value": "0.202 and 0.387 and 0.46 and 0.397"},
      {"measurement": "Absorbance at 450 nm", "setting": "[1]; 3.12 μM", "value": "0.235 and 0.468 and 0.451 and 0.415"},
      {"measurement": "Absorbance at 450 nm", "setting": "[1]; 6.25 μM", "value": "0.263 and 0.363 and 0.451 and 0.395"},
      {"measurement": "Absorbance at 450 nm", "setting": "[1]; 12.5 μM", "value": "0.276 and 0.282 and 0.347 and 0.305"},
      {"measurement": "Absorbance at 450 nm", "setting": "[1]; 25 μM", "value": "0.21 and 0.224 and 0.271 and 0.217"},
      {"measurement": "Absorbance at 450 nm", "setting": "[1]; 50 μM", "value": "0.091 and 0.113 and 0.117 and 0.092"}
    ]},
    {"smiles": "CC(=O)S[C@@H]1CC2=CC(=O)CC[C@]2(C)[C@H]2CC[C@@]3(C)[C@@H](CC[C@@]34CCC(=O)O4)[C@H]12", "note": "[Spironolactone]", "values": [
      {"measurement": "Absorbance at 450 nm", "setting": "[1]; 0.19 μM", "value": "0.22 and 0.2 and 0.183 and 0.095"},
      {"measurement": "Absorbance at 450 nm", "setting": "[1]; 0.78 μM", "value": "0.328 and 0.23 and 0.168 and 0.063"},
      {"measurement": "Absorbance at 450 nm", "setting": "[1]; 1.56 μM", "value": "0.328 and 0.318 and 0.2 and 0.069"},
      {"measurement": "Absorbance at 450 nm", "setting": "[1]; 3.12 μM", "value": "0.359 and 0.317 and 0.223 and 0.06"},
      {"measurement": "Absorbance at 450 nm", "setting": "[1]; 6.25 μM", "value": "0.358 and 0.307 and 0.263 and 0.097"},
      {"measurement": "Absorbance at 450 nm", "setting": "[1]; 12.5 μM", "value": "0.338 and 0.342 and 0.234 and 0.092"},
      {"measurement": "Absorbance at 450 nm", "setting": "[1]; 25 μM", "value": "0.255 and 0.257 and 0.214 and 0.076"},
      {"measurement": "Absorbance at 450 nm", "setting": "[1]; 50 μM", "value": "0.079 and 0.082 and 0.074 and 0.047"}
    ]},
    {"smiles": "NC(=O)c1ncn([C@@H]2O[C@H](CO)[C@@H](O)[C@H]2O)n1", "note": "[Ribavirin]", "values": [
      {"measurement": "Activity against dengue in tissue culture", "setting": "[2]", "value": "works against dengue in tissue culture"},
      {"measurement": "Protection against dengue", "setting": "[3]", "value": "did not show protection"},
      {"measurement": "Adverse effects in dengue animal models", "setting": "[4]; mouse model or rhesus monkey model (species not specified)", "value": "induced anemia and thrombocytosis"},
      {"measurement": "Protection against dengue", "setting": "[4]; rhesus monkey model", "value": "did not show protection"}
    ]},
    {"smiles": "COC(=O)[C@@H]1CC2=CC(=O)CC[C@]2(C)[C@@]23O[C@@H]2C[C@@]2(C)[C@@H](CC[C@@]24CCC(=O)O4)[C@H]13", "note": "[Eplerenone, pregn-4-ene-7,21-dicarboxylic acid, 9,11-epoxy-17-hydroxy-3-oxo, γ-lactone, methyl ester (7α, 11α, 17α)]", "values": [
      {"measurement": "Cmax relative to in-vitro concentration of column#9 ([…])", "setting": "[5]; Cmax […] after 100 mg oral vs in-vitro […]", "value": 10, "unit": "times"},
      {"measurement": "Cmax", "setting": "[5]; 50 mg, healthy subjects, single dose of 50 mg orally, read-out: mean Cmax concentrations, equivalent", "value": 2.8, "unit": "µM"},
      {"measurement": "Cmax", "setting": "[5]; 100 mg, healthy subjects, dose 100 mg orally, read-out: mean Cmax concentrations, equivalent", "value": 4.1, "unit": "µM"},
      {"measurement": "Cmax", "setting": "[5]; 100 mg, therapeutic doses of oral Eplerenone (100 mg), read-out: Peak plasma concentrations (Cmax), equivalent", "value": "≤ 4.1", "unit": "µM"},
      {"measurement": "mean Cmax concentrations", "setting": "[6]; dose 100 mg orally", "value": 1720, "unit": "ng/mL"},
      {"measurement": "mean Cmax concentrations", "setting": "[6]; single dose of 50 mg orally", "value": 1173, "unit": "ng/mL"},
      {"measurement": "Accumulation: steady state Cmax compared with single dose administration", "setting": "[6]; multiple dose studies", "value": "no significant accumulation"},
      {"measurement": "Time to reach steady state concentrations", "setting": "[6]; multiple dose studies", "value": "≤ 4", "unit": "days"},
      {"measurement": "Peak plasma concentrations (Cmax)", "setting": "[6]; therapeutic doses of oral Eplerenone (100 mg), human", "value": "up to 1720 ng/ml"},
      {"measurement": "Pregnancy category", "setting": "[7]; animal reproduction studies failed to demonstrate a risk to the fetus", "value": "category B"},
      {"measurement": "Tolerability", "setting": "[7]; human", "value": "generally well tolerated"},
      {"measurement": "Dose with noticeable risk of foetal abnormalities", "setting": "[8]", "value": "over 1000 times the recommended daily dose"},
      {"measurement": "Absorbance at 450 nm", "setting": "[1]; 0.19 μM", "value": "0.449 and 0.441 and 0.468 and 0.469"},
      {"measurement": "Absorbance at 450 nm", "setting": "[1]; 0.78 μM", "value": "0.433 and 0.434 and 0.432 and 0.428"},
      {"measurement": "Absorbance at 450 nm", "setting": "[1]; 1.56 μM", "value": "0.369 and 0.466 and 0.453 and 0.443"},
      {"measurement": "Absorbance at 450 nm", "setting": "[1]; 3.12 μM", "value": "0.4 and 0.423 and 0.453 and 0.441"},
      {"measurement": "Absorbance at 450 nm", "setting": "[1]; 6.25 μM", "value": "0.376 and 0.448 and 0.411 and 0.397"},
      {"measurement": "Absorbance at 450 nm", "setting": "[1]; 12.5 μM", "value": "0.334 and 0.333 and 0.373 and 0.341"},
      {"measurement": "Absorbance at 450 nm", "setting": "[1]; 25 μM", "value": "0.29 and 0.288 and 0.291 and 0.271"},
      {"measurement": "Absorbance at 450 nm", "setting": "[1]; 50 μM", "value": "0.217 and 0.238 and 0.209 and 0.182"},
      {"measurement": "In-vitro concentrations showing anti-viral activity against Zika virus", "setting": "[1]; columns 6-10 of the report, comparable to Butantan control", "value": "0.19 to 3.12", "unit": "µM"}
    ]}
  ]
}
